# In patent US10023592B2, “Bromodomain inhibitors” (Celgene Quanticel Research, Inc., priority 2013, dated 2018):
# Counter-ions that a name gives are not always drawn.
# Biological target: BRD4(BD1) (Homo sapiens (Human), UniProt O60885)
# Assay: In vitro enzyme inhibition assay (BRD4 AlphaScreen)
# Type: binding
# Conditions: not given
# Method: His-tagged BRD4 was cloned, expressed and purified to homogeneity. […] BRD4 binding and inhibition was assessed by monitoring the interaction of biotinylated H4-tetraacetyl peptide (AnaSpec, H4K5/8/12/16(Ac), biotin-labeled) with the target using the AlphaScreen technology (Life Technologies). […] After 20 min incubation at room temp, Alpha streptavidin donor beads and Nickel Chelate acceptor beads were added to a final concentration of 5 μg/mL.
# The ability of the compounds disclosed herein to inhibit BRD4 activity was quantified and the respective IC50 value was determined.
row,Compound,IC50 [nM]
1,"8-[2-(cyclopropylmethoxy)-5-ethylsulfonylphenyl]-6-methyl-3,4,4a,8a-tetrahydro-2H-pyrido[4,3-b][1,4]oxazin-5-one [Example 366]",< 500

# Same assay, conditions: class symbols A/B/C
row,Compound,IC50 [nM]
1,"CCS(=O)(=O)Nc1cccc(-c2cn(C)c(=O)c3ccc(-c4ccccc4)cc23)c1 [Example 73, N-[3-(2-methyl-1-oxo-6-phenylisoquinolin-4-yl)phenyl]ethanesulfonamide]",500 to 5000
2,"Cn1cc(-c2cccc(S(=O)(=O)NC3CC3)c2)c2ccccc2c1=O [Example 6, N-cyclopropyl-3-(2-methyl-1-oxoisoquinolin-4-yl) benzenesulfonamide]",500 to 5000
3,"COc1ccc(-c2cn(C)c(=O)c3ccccc23)cc1S(N)(=O)=O [Example 16, 2-methoxy-5-(2-methyl-1-oxoisoquinolin-4-yl) benzenesulfonamide]",500 to 5000
4,"CNc1cccc(-c2cn(C)c(=O)c3ccccc23)c1 [Example 32, 2-methyl-4-[3-(methylamino)phenyl]isoquinolin-1-one Hydrochloride]",500 to 5000
5,"Cc1cc(=O)n(C)nc1-c1cc(S(C)(=O)=O)ccc1OCC1CC1 [Example 137, 6-[2-(cyclopropylmethoxy)-5-methylsulfonylphenyl]-2,5-dimethylpyridazin-3-one]",500 to 5000
6,"Cn1cc(-c2cc(N)ccc2F)c2ccccc2c1=O [Example 23, 4-(5-amino-2-fluorophenyl)-2-methylisoquinolin-1-one hydrochloride]",500 to 5000
7,"COc1ccc(-c2cn(C)c(=O)c(N)n2)cc1NS(C)(=O)=O [Example 106, N-[5-(6-amino-4-methyl-5-oxopyrazin-2-yl)-2-methoxyphenyl]methanesulfonamide]",> 5000
8,"Cn1cc(-c2ccn[nH]2)c2ccccc2c1=O [Example 68, 2-methyl-4-(1H-pyrazol-5-yl)isoquinolin-1-one]",> 5000
9,"COc1cccc(-c2cn(C)c(=O)c3ccccc23)c1 [Example 1, 4-(3-methoxyphenyl)-2-methylisoquinolin-1-one]",500 to 5000
10,"CCN(CC)c1cc(-c2ccc(OC)c(NS(C)(=O)=O)c2)cn(C)c1=O [Example 114, N-[5-[5-(diethylamino)-1-methyl-6-oxopyridin-3-yl]-2-methoxyphenyl]methanesulfonamide]",500 to 5000
11,"Cn1cc(-c2cccc(S(N)(=O)=O)c2)c2ccncc2c1=O [Example 55, 3-(2-methyl-1-oxo-2,7-naphthyridin-4-yl) benzenesulfonamide]",> 5000
12,"CCNS(=O)(=O)c1cccc(-c2cn(C)c(=O)c3ccncc23)c1 [Example 124, N-ethyl-3-(2-methyl-1-oxo-2,6-naphthyridin-4-yl) benzenesulfonamide]",500 to 5000
13,"Cn1cc(-c2cccc(NS(C)(=O)=O)c2)c2cnccc2c1=O [Example 125, N-[3-(2-methyl-1-oxo-2,6-naphthyridin-4-yl)phenyl] methanesulfonamide]",500 to 5000
14,"CCS(=O)(=O)c1cccc(-c2cn(C)c(=O)c(N)n2)c1 [Example 105, 3-amino-5-(3-ethylsulfonylphenyl)-1-methylpyrazin-2-one]",> 5000

# Same assay, conditions: in vitro enzyme inhibition assay
row,Compound,IC50 [nM]
1,"Cn1cc(-c2cc(NS(C)(=O)=O)ccc2Oc2ccc(F)cc2F)c2c(c1=O)CCC2 [Example 506, N-[4-(2,4-difluorophenoxy)-3-(2-methyl-1-oxo-6,7-dihydro-5H-cyclopenta[c]pyridin-4-yl)phenyl]methanesulfonamide]",< 500
2,"CC#CCOc1cc(-c2cc(C)c(=O)n(C)c2)cc(S(C)(=O)=O)c1 [Example 340, 5-(3-but-2-ynoxy-5-methylsulfonylphenyl)-1,3-dimethylpyridin-2-one]",< 500
3,"Cc1cc(-c2cc(S(C)(=O)=O)ccc2NC2CCC(F)(F)CC2)cn(C)c1=O [Example 413, 5-[2-[(4,4-difluorocyclohexyl)amino]-5-methylsulfonylphenyl]-1,3-dimethylpyridin-2-one]",< 500
4,"CCS(=O)(=O)Nc1nc(Oc2ccc(F)cc2F)cc(-c2cc(C)c(=O)n(C)c2)n1 [Example 346, N-[4-(2,4-difluorophenoxy)-6-(1,5-dimethyl-6-oxopyridin-3-yl)pyrimidin-2-yl]ethanesulfonamide]",500 to 5000
5,"CCS(=O)(=O)Cc1ccc(OCC(F)(F)F)c(-c2cc(C)c(=O)n(C)c2)c1 [Example 411, 5-[5-(ethylsulfonylmethyl)-2-(2,2,2-trifluoroethoxy)phenyl]-1,3-dimethylpyridin-2-one]",< 500
6,"CCS(=O)(=O)c1ccc(NCC2CC2)c(-c2cn(C)c(=O)c3cncn23)c1 [Example 375, 5-[2-(cyclopropylmethylamino)-5-ethylsulfonylphenyl]-7-methylimidazo[1,5-a]pyrazin-8-one]",< 500
7,"CCCc1cnc(NS(=O)(=O)CC)nc1-c1ccc(=O)n(C)c1 [Example 357, N-[4-(1-methyl-6-oxopyridin-3-yl)-5-propylpyrimidin-2-yl]ethanesulfonamide]",< 500
8,"CCc1ccccc1-c1sc(NS(=O)(=O)CC)cc1-c1ccc(=O)n(C)c1 [Example 435, N-[5-(2-ethylphenyl)-4-(1-methyl-6-oxopyridin-3-yl)thiophen-2-yl] ethanesulfonamide]",> 5000
9,"Cn1cc(-c2cccc(NS(C)(=O)=O)c2)cc(OCc2ccccc2)c1=O [Example 471, N-[3-(1-methyl-6-oxo-5-phenylmethoxypyridin-3-yl)phenyl]methanesulfonamide]",> 5000
10,"CCS(=O)(=O)Nc1cc(-c2ccc(=O)n(C)c2)c(-c2ccccc2C)s1 [Example 432, N-[4-(1-methyl-6-oxopyridin-3-yl)-5-(2-methylphenyl)thiophen-2-yl]ethanesulfonamide]",> 5000
11,"Cn1cc(-c2nc(N3CCCS3(=O)=O)ncc2Oc2ccc(F)cc2F)c2ccccc2c1=O [Example 171, 4-[5-(2,4-difluorophenoxy)-2-(1,1-dioxo-1,2-thiazolidin-2-yl)pyrimidin-4-yl]-2-methylisoquinolin-1-one]",< 500
12,"CCS(=O)(=O)c1ccc(OCC2CC2)c(-c2cn(C)c(=O)c3c2CCC3)c1 [Example 505, 4-[2-(cyclopropylmethoxy)-5-ethylsulfonylphenyl]-2-methyl-6,7-dihydro-5H-cyclopenta[c]pyridin-1-one]",< 500
13,"CCS(=O)(=O)c1ccc(OC)c(-c2cc(O)c(=O)n(C)c2)c1 [Example 461, 5-(5-ethylsulfonyl-2-methoxyphenyl)-3-hydroxy-1-methylpyridin-2-one]",500 to 5000
14,"CC(=O)Nc1nc(-c2cccc(NS(C)(=O)=O)c2)cn(C)c1=O [Example 478, N-[6-[3-(methanesulfonamido)phenyl]-4-methyl-3-oxopyrazin-2-yl]acetamide]",> 5000
15,"COc1cc(F)c(CS(C)(=O)=O)cc1-c1ccc(=O)n(C)c1 [Example 475, 5-[4-fluoro-2-methoxy-5-(methylsulfonylmethyl)phenyl]-1-methylpyridin-2-one]",500 to 5000
16,"CC(C)c1cc(-c2nc(S(C)(=O)=O)ncc2Oc2ccc(F)cc2F)cn(C)c1=O [Example 273, 5-[5-(2,4-difluorophenoxy)-2-methylsulfonylpyrimidin-4-yl]-1-methyl-3-propan-2-ylpyridin-2-one]",500 to 5000
17,"CCS(=O)(=O)Nc1ncc(Oc2ccc(F)cc2F)c(-c2cc(C(C)C)c(=O)n(C)c2)n1 [Example 514, N-[5-(2,4-difluorophenoxy)-4-(1-methyl-6-oxo-5-propan-2-ylpyridin-3-yl)pyrimidin-2-yl]ethanesulfonamide]",< 500
18,"CCS(=O)(=O)Nc1ccc(Oc2ccc(F)cc2F)c(-c2cn(C)c(=O)c3c2CNCC3)c1 [Example 142, N-[4-(2,4-difluorophenoxy)-3-(2-methyl-1-oxo-5,6,7,8-tetrahydro-2,6-naphthyridin-4-yl)phenyl]ethanesulfonamide]",500 to 5000
19,"Cc1cc(-c2cc(S(C)(=O)=O)ccc2OCC2CC2)cn(C2CCC2)c1=O [Example 483, 1-cyclobutyl-5-[2-(cyclopropylmethoxy)-5-methylsulfonylphenyl]-3-methylpyridin-2-one]",< 500
20,"CCCC1Cc2cc(NS(=O)(=O)CC)cc(-c3cc(C)c(=O)n(C)c3)c2O1 (stereo not drawn) [Example 495, N-[7-(1,5-dimethyl-6-oxopyridin-3-yl)-2-propyl-2,3-dihydro-1-benzofuran-5-yl] ethanesulfonamide]",< 500
21,"C#Cc1cc(-c2cc(S(C)(=O)=O)ccc2OCC2CC2)cn(C)c1=O [Example 285, 5-[2-(cyclopropylmethoxy)-5-methylsulfonylphenyl]-3-ethynyl-1-methylpyridin-2-one]",500 to 5000
22,"CCCCc1cnc(S(C)(=O)=O)nc1-c1cc(C)c(=O)n(C)c1 [Example 305, 5-(5-butyl-2-methylsulfonylpyrimidin-4-yl)-1,3-dimethylpyridin-2-one]",< 500
23,"CCCCc1cnc(S(C)(=O)=O)nc1-c1cc(C(C)C)c(=O)n(C)c1 [Example 513, 5-(5-butyl-2-methylsulfonylpyrimidin-4-yl)-1-methyl-3-propan-2-ylpyridin-2-one]",< 500
24,"Cn1cc(-c2nc(S(C)(=O)=O)ncc2Oc2ccc(F)cc2F)c2ccccc2c1=O [Example 151, 4-[5-(2,4-difluorophenoxy)-2-methylsulfonylpyrimidin-4-yl]-2-methylisoquinolin-1-one]",< 500
25,"Cn1cc(-c2cc(S(C)(=O)=O)ccc2CCC2CC2)ccc1=O [Example 315, 5-[2-(2-cyclopropylethyl)-5-methylsulfonylphenyl]-1-methylpyridin-2-one]",< 500
26,"CCS(=O)(=O)c1ccc(NCC2CC2)c(-c2cc(OC)c(=O)n(C)c2)c1 [Example 414, 5-[2-(cyclopropylmethylamino)-5-ethylsulfonylphenyl]-3-methoxy-1-methylpyridin-2-one]",< 500
27,"Cc1cc(-c2cc(S(C)(=O)=O)ccc2OCC2CC2)cn(Cc2ccccc2)c1=O [Example 485, 1-benzyl-5-[2-(cyclopropylmethoxy)-5-methylsulfonylphenyl]-3-methylpyridin-2-one]",500 to 5000
